Numbering of substitutions follows the chain as printed. “Also recorded” adds a separate entry of the source.
How the values were obtained:
OCT1 Phe244Ala variant [1] = molecular target: T1, OCT1 Phe244Ala variant (Homo sapiens, UniProt O15245, F244A); experiment: Concentration-dependent uptake kinetics, HEK293 cells overexpressing OCT1 Phe244Ala; details: for Clint: OCT1 Phe244Ala, ratio of vmax over Km; for Km, Phe244Ala compared to WT / Maximum transport capacity (vmax), Phe244Ala compared to WT: uptake kinetics, in words;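 on all read-outs here: cells exposed to rising substrate concentrations in buffer, intracellular drug measured by HPLC-tandem mass spectrometry, quantified against a standard curve, uptake referenced to empty vector-transfected HEK293 controls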
T1 sequence (O15245 1-554 F244A): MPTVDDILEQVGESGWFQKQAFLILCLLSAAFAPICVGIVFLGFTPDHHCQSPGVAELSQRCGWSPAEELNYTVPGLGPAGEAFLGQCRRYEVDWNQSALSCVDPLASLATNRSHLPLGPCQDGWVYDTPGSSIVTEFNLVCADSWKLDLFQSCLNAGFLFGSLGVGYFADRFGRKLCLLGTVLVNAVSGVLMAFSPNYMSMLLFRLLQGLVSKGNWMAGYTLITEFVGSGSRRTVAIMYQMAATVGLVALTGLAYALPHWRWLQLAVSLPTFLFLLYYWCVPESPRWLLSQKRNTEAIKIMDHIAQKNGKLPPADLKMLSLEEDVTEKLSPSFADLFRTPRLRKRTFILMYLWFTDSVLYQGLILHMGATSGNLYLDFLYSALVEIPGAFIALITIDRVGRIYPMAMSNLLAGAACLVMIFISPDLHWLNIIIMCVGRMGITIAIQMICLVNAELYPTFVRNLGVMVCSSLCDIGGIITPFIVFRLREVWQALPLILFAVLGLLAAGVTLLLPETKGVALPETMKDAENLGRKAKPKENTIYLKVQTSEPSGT

OCT1 WT [2] = molecular target: T2, OCT1 WT (Homo sapiens, UniProt O15245); experiment: Concentration-dependent uptake kinetics, HEK293 cells overexpressing OCT1 WT; details: for Clint: OCT1 WT, ratio of vmax over Km
T2 sequence (O15245 1-554): T1 sequence (O15245 1-554 F244A) with A244F

OCT1 WT [3] = molecular target: T2, OCT1 WT; experiment: Uptake screening (transport ratio over empty vector), HEK293 cells overexpressing OCT1 WT; format: cell-based; design: expressed in transfected cells;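 further: intracellular substrate levels quantified by HPLC–tandem mass spectrometry after uptake in HBSS+ buffer at 37 °C, stable Flp-In HEK293 lines, fold change versus empty vector–transfected cells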
OCT1 Phe244Ala variant [4] = molecular target: T1, OCT1 Phe244Ala variant; experiment: Uptake screening (transport ratio over empty vector), HEK293 cells overexpressing OCT1 Phe244Ala variant; format: cell-based; design: expressed in transfected cells; details: for Fold increased uptake rate by Phe244Ala compared to WT / Transport activity of Phe244Ala in % of WT activity: 2.5 μM substrate, 2 min;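 on all read-outs here: stably transfected HEK293 cells, intracellular substrate quantified by HPLC-tandem mass spectrometry in cell lysates, uptake in HBSS+ buffer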
OCT1 Phe244Ala variant [5] = molecular target: T1, OCT1 Phe244Ala variant; experiment: Stereoselective cell uptake of racemic substrates (chiral LC-MS/MS), OCT1 Phe244Ala variant; details: 2.5 μM racemic substance, 2 min
OCT1 Phe244Ala variant [6] = molecular target: T1, OCT1 Phe244Ala variant; experiment: Inhibition of (R,S)-ethambutol uptake, HEK293 cells overexpressing OCT1 Phe244Ala; details: for Inhibition of the Phe244Ala mutant compared to the WT transporter (screening): 20 μM inhibitor, 2 μM (R,S)-ethambutol, 5 min
OCT1 Phe244Ala variant [7] = molecular target: T1, OCT1 Phe244Ala variant; experiment: cell-based
OCT1 WT [8] = molecular target: T2, OCT1 WT; experiment: cell-based
[9] = uptake ratio over empty vector, HEK293 cells overexpressing OCT1 WT
[10] = Phe244Ala uptake relative to WT
[11] = uptake ratio over empty vector, HEK293 cells overexpressing OCT1 Phe244Ala
[12] = uptake ratio of OCT1 WT-overexpressing HEK293 cells over empty vector
[13] = Phe244Ala uptake relative to OCT1 WT
[14] = uptake ratio of OCT1 Phe244Ala-overexpressing HEK293 cells over empty vector

SMILES	Clint (OCT1 Phe244Ala variant [1])	Clint (OCT1 WT [2])	Mean_transport_ratio_WT (OCT1 WT [3]; [9])	Mean_transport_ratio_Phe244Ala (OCT1 Phe244Ala variant [4]; [11])	relative_Phe244Ala_uptake_in% (OCT1 Phe244Ala variant [4]; [13]) [%]	also measured
CC(C)(C)NCC(O)COc1cccc2c1CCC(=O)N2 (stereo not shown) [Carteolol]	7.82 ± 8.13 ml × g Protein^−1 × min^−1	1.01 ± 1.41 ml × g Protein^−1 × min^−1	3.378	8.502	–	Fold increased uptake rate by Phe244Ala compared to WT (OCT1 Phe244Ala variant [4]): 3.2 fold; relative_Phe244Ala_uptake_in% (OCT1 Phe244Ala variant [4]; [10]): 315.540%
CCN1CCCC1CNC(=O)c1cc(S(N)(=O)=O)ccc1OC (stereo not shown) [Sulpiride]	4.01 ± 3.27 ml × g Protein^−1 × min^−1	2.65 ± 3.09 ml × g Protein^−1 × min^−1	–	–	–	vmax (OCT1 Phe244Ala variant [1]): 418 ± 65 pmol × mg protein^−1 × min^−1; vmax (OCT1 WT [2]): 237 ± 49.7 pmol × mg protein^−1 × min^−1
CC(CCc1ccc(O)cc1)NCCc1ccc(O)c(O)c1 (stereo not shown) [Dobutamine]	7.88 ± 6.38 ml × g Protein^−1 × min^−1	3.03 ± 6.16 ml × g Protein^−1 × min^−1	6.852	15.606	–	Km, Phe244Ala compared to WT (OCT1 Phe244Ala variant [1]): lower Km values; relative_Phe244Ala_uptake_in% (OCT1 Phe244Ala variant [4]; [10]): 249.567%
CN[C@@H]1CCc2[nH]c3ccc(C(N)=O)cc3c2C1 [Frovatriptan]	–	–	–	–	43.181	Stereoselectivity of Phe244Ala variant compared to WT (OCT1 Phe244Ala variant [5]): opposite stereoselectivities; also recorded: only one enantiomer of the racemic mixtures showed altered transport; Mean_transport_ratio_WT (OCT1 WT [3]; [12]): 22.068; Mean_transport_ratio_Phe244Ala (OCT1 Phe244Ala variant [4]; [14]): 10.097
CC(=O)OC(C)C[N+](C)(C)C (stereo not drawn) [Methacholine, Acetyl-beta-methylcholine]	3.03 ± 8.29 ml × g Protein^−1 × min^−1	14.1 ± 15.2 ml × g Protein^−1 × min^−1	–	–	–	Km, Phe244Ala compared to WT (OCT1 Phe244Ala variant [1]): higher Km values; Maximum transport capacity (vmax), Phe244Ala compared to WT (OCT1 Phe244Ala variant [1]): more similar maximum transport capacities; Transport activity of Phe244Ala in % of WT activity (OCT1 Phe244Ala variant [4]; [10]): ~10%
COc1cc(Cc2cnc(N)nc2N)cc(OC)c1OC [Trimethoprim]	–	–	3.204	1.519	23.542	Inhibition of the Phe244Ala mutant compared to the WT transporter (screening) (OCT1 Phe244Ala variant [6]): strongly reduced inhibition
NC(N)=Nc1nc(CSCCC(N)=NS(N)(=O)=O)cs1 [Famotidine]	12.1 ± 19.8 ml × g Protein^−1 × min^−1	45.8 ± 45.7 ml × g Protein^−1 × min^−1	–	–	–	Km, Phe244Ala compared to WT (OCT1 Phe244Ala variant [1]): higher Km values; Maximum transport capacity (vmax), Phe244Ala compared to WT (OCT1 Phe244Ala variant [1]): more similar maximum transport capacities
CN1CCN(CC(=O)N2c3ccccc3C(=O)Nc3cccnc32)CC1 [Pirenzepine]	2.74 ± 2.15 ml × g Protein^−1 × min^−1	0.43 ± 0.85 ml × g Protein^−1 × min^−1	–	–	–	Km, Phe244Ala compared to WT (OCT1 Phe244Ala variant [1]): lower Km values; Inhibition of the Phe244Ala mutant compared to the WT transporter (screening) (OCT1 Phe244Ala variant [6]): more potent inhibition; IC50 (OCT1 Phe244Ala variant [7]): 23.3 µM; IC50 (OCT1 WT [8]): 104 µM; Fold increased uptake rate by Phe244Ala compared to WT (OCT1 Phe244Ala variant [4]): 8.0 fold
CC(C)[N+](C)(CCOC(=O)C1c2ccccc2Oc2ccccc21)C(C)C [Propanthelin, Propantheline]	205 ± 124 ml × g Protein^−1 × min^−1	224 ± 251 ml × g Protein^−1 × min^−1	–	–	–	–
CN(C)CCc1ccc(O)cc1 [Hordenine]	–	–	–	–	11.246	Inhibition of the Phe244Ala mutant compared to the WT transporter (screening) (OCT1 Phe244Ala variant [6]): strongly reduced inhibition; IC50 (OCT1 Phe244Ala variant [7]): 53.2 µM; Mean_transport_ratio_WT (OCT1 WT [3]; [12]): 2.424; IC50 (OCT1 WT [8]): 3 µM; Mean_transport_ratio_Phe244Ala (OCT1 Phe244Ala variant [4]; [14]): 1.16
CN(C)CCc1c[nH]c2ccc(C[C@H]3COC(=O)N3)cc12 [Zolmitriptan]	13.3 ± 17.5 ml × g Protein^−1 × min^−1	21.6 ± 26.4 ml × g Protein^−1 × min^−1	–	–	–	Maximum transport capacity (vmax), Phe244Ala compared to WT (OCT1 Phe244Ala variant [1]): reduced transport capacity
COc1cc(CCN)cc(OC)c1OC [Mescaline]	0.91 ± 2.50 ml × g Protein^−1 × min^−1	4.84 ± 2.55 ml × g Protein^−1 × min^−1	–	–	16.381	Km, Phe244Ala compared to WT (OCT1 Phe244Ala variant [1]): higher apparent affinity Km and transport capacity vmax for the WT transporter than the Phe244Ala variant; Maximum transport capacity (vmax), Phe244Ala compared to WT (OCT1 Phe244Ala variant [1]): higher apparent affinity Km and transport capacity vmax for the WT transporter than the Phe244Ala variant; Inhibition of the Phe244Ala mutant compared to the WT transporter (screening) (OCT1 Phe244Ala variant [6]): strongly reduced inhibition; Mean_transport_ratio_WT (OCT1 WT [3]; [12]): 5.297; Transport activity of Phe244Ala in % of WT activity (OCT1 Phe244Ala variant [4]; [10]): ~10%; Mean_transport_ratio_Phe244Ala (OCT1 Phe244Ala variant [4]; [14]): 1.704
Cc1ncc(C[n+]2csc(CCO)c2C)c(N)n1 [Thiamine]	2.70 ± 5.44 ml × g Protein^−1 × min^−1	7.51 ± 8.28 ml × g Protein^−1 × min^−1	42.169	9.954	21.749	Maximum transport capacity (vmax), Phe244Ala compared to WT (OCT1 Phe244Ala variant [1]): reduced transport capacity
CCNCC(O)c1cccc(O)c1 (stereo not shown) [Etilefrine]	–	–	6.81	3.319	–	relative_Phe244Ala_uptake_in% (OCT1 Phe244Ala variant [4]; [10]): 39.917%
COc1cc2c(cc1OC)-c1cc3ccc(OC)c(OC)c3c[n+]1CC2 [Palmatin]	–	–	7.047	4.951	65.326	–
Clc1cccc(Cl)c1N=C1NCCN1 [Clonidine]	–	–	–	–	–	Inhibition of the Phe244Ala mutant compared to the WT transporter (screening) (OCT1 Phe244Ala variant [6]): strongly reduced inhibition; Fold difference of inhibitory potency between WT and Phe244Ala (OCT1 Phe244Ala variant [6]; IC50 comparison, (R,S)-ethambutol uptake): 21 fold; IC50 (OCT1 Phe244Ala variant [7]): 34.3 µM; IC50 (OCT1 WT [8]): 1.62 µM
NCCc1ccc(O)cc1 [p-Tyramine]	–	–	4.809	1.435	11.429	–
CC(C)[N+](C)(CCOC(=O)C1c2ccccc2Oc2ccccc21)C(C)C [Propanthelinbromid]	–	–	8.263	14.937	191.888	–
CNC(=C[N+](=O)[O-])NCCSCc1csc(CN(C)C)n1 [Nizatidine]	–	–	–	–	10.436	Mean_transport_ratio_WT (OCT1 WT [3]; [12]): 4.961; Mean_transport_ratio_Phe244Ala (OCT1 Phe244Ala variant [4]; [14]): 1.413
COc1cc(CCN)ccc1O [3-Methoxy-p-tyramine]	–	–	–	–	27.805	Mean_transport_ratio_WT (OCT1 WT [3]; [12]): 3.981; Mean_transport_ratio_Phe244Ala (OCT1 Phe244Ala variant [4]; [14]): 1.829

Reference: publication PMC11602988 (The Journal of Biological Chemistry, 2024)
